Source: BindingDB's records for patent US11858959 (Ardelyx, 2024)

Target: T1, 11-beta-hydroxysteroid dehydrogenase type 2 (Homo sapiens, UniProt P80365)
T1 sequence (P80365 whole entry): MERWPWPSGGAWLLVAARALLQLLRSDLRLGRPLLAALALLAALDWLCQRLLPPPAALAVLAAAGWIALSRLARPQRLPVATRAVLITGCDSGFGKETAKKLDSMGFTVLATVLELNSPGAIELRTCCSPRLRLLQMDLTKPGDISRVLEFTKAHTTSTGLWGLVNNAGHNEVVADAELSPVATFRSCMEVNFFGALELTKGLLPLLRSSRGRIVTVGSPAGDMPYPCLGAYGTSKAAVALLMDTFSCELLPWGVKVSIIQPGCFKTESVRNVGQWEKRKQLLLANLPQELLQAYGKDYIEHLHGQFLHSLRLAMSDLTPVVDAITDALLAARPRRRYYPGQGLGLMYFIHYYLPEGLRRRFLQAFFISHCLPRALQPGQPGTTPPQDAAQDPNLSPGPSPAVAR
Assay: HSD2 Activity
Procedure: Human descending colon epithelial stem cells were cultured as 3D organoids in accordance with Sato et al Gastroenterology. 2011 November; 141(5): 1762-72. Organoids were dissociated using TrypLE Express (life technologies) and plated on 96-well transwells (corning) in supplemented basal media (SBM-advanced DMEM/F12 containing 10 mM HEPES, 1:100 Glutamax, 1:100 penicillin/streptomycin, 1:100N2, 1:50 B27, 1 mM N-acetylcysteine, 10 nM [Leu15]-gastrin I) containing 100 ng/mL Wnt3A (W), 50 ng/mL EGF (E), 100 ng/mL Noggin (N), 500 ng/mL RSpondinl (R), 500 nM A83-01 (S) and 2.5 uM thiazovivin (T). Cultures were differentiated using SBM containing ENRA and 30 nM aldosterone on day 3, and cultures were used for assay on day 6 or 7. Compounds were diluted in DMSO and serial dilutions prepared by titrating in DMSO. Compounds were then diluted into DMEM/F12. Transwell plates containing descending colon cultures were washed twice with DMEM/F12 and compound was added to the apical compartment. Cells were incubated with test compound for 30 minutes at 37 C., 5% CO2 to equilibrate across the cell membrane. […] Cortisol levels were measured using a cortisol HTRF assay kit as described by the manufacturer (Cisbio). Concentration-response curves were then plotted and IC50 (and pIC50) values were determined using least squares non-linear regression.

Question: With Cc1oc(=O)oc1COC(=O)[C@]1(C)[C@@H](OC(=O)CN(C)C)CC[C@@]2(C)[C@H]1CC[C@]1(C)[C@@H]2C(=O)C=C2[C@@H]3C[C@@](C)(C(=O)O)CC[C@]3(C)CC[C@]21C [US11858959, Compound 290-2] as the compound, how does the IC50 read?
Answer: 251 nM
